Laboratory results from ChEMBL document CHEMBL1201862, “PubChem BioAssay data set” (2004).
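Briefly, cells in 96-well plates were exposed to five compound concentrations for 48 h, and endpoints were estimated by linear interpolation. The concentration for 50% growth inhibition is given as GI50.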 Activity calls are given as the source filed them. Cut-off read from the data, not from the text of the source: active = GI50 up to about 1.1 µM and inactive = higher. Non-standard residues stand in square brackets, D forms with d. Residues, ends and D or L forms follow the SMILES beside them. Ava = NCCCCC(=O)O; Mpa = O=C(O)CCS

Legend:
Assay in all cases: inhibition of tumour cell growth, NCI panel, 48 h
A498 = system: A498
A549 = system: A549
ACHN = system: ACHN
CAKI-1 = system: CAKI-1
EKVX = system: EKVX
HCT-15 = system: HCT-15
HL-60 = system: HL-60
HT-29 = system: HT-29
M14 = system: M14
MOLT-4 = system: MOLT-4
Malme-3M = system: Malme-3M
NCI-H226 = system: NCI-H226
NCI-H522 = system: NCI-H522
OVCAR-5 = system: OVCAR-5
PC-3 = system: PC-3
SF-268 = system: SF-268
SK-MEL-28 = system: SK-MEL-28
SN12C = system: SN12C
SNB-75 = system: SNB-75
TK-10 = system: TK-10

| Compound | GI50 (A498) | GI50 (A549) | GI50 (ACHN) | GI50 (CAKI-1) | GI50 (EKVX) | GI50 (HCT-15) [µM] | GI50 (HL-60) | GI50 (HT-29) | GI50 (M14) | GI50 (MOLT-4) | GI50 (Malme-3M) | GI50 (NCI-H226) | GI50 (NCI-H522) | GI50 (OVCAR-5) | GI50 (PC-3) | GI50 (SF-268) | GI50 (SK-MEL-28) | GI50 (SN12C) | GI50 (SNB-75) | GI50 (TK-10) |
| --- | --- | --- | --- | --- | --- | --- | --- | --- | --- | --- | --- | --- | --- | --- | --- | --- | --- | --- | --- | --- |
| Nc1n[c-](N)[n+](=O)c(N)c1NCO | > 100 µM (inactive) | > 100 µM (inactive) | > 100 µM (inactive) | > 100 µM (inactive) | > 100 µM (inactive) | > 100 | > 100 µM (inactive) | > 100 µM (inactive) | > 100 µM (inactive) | > 100 µM (inactive) | > 100 µM (inactive) | > 100 µM (inactive) | > 100 µM (inactive) | > 100 µM (inactive) | > 100 µM (inactive) | > 100 µM (inactive) | > 100 µM (inactive) | > 100 µM (inactive) | > 100 µM (inactive) | > 100 µM (inactive) |
| COc1ccc(/C(C#N)=C/c2ccc(OC)c(OC)c2)cc1 | > 100 µM (inactive) | > 100 µM (inactive) | > 100 µM (inactive) | > 100 µM (inactive) | > 100 µM (inactive) | 37.2 | > 100 µM (inactive) | > 100 µM (inactive) | > 100 µM (inactive) | > 100 µM (inactive) | > 100 µM (inactive) | > 100 µM (inactive) | > 100 µM (inactive) | > 100 µM (inactive) | > 100 µM (inactive) | > 100 µM (inactive) | > 100 µM (inactive) | > 100 µM (inactive) | 56.9 µM (inactive) | > 100 µM (inactive) |
| CC(NC(=O)CCS)C(=O)NC(C)C(=O)NC(Cc1c[nH]c2ccccc12)C(=O)NC(Cc1c[nH]cn1)C(=O)NC(CO)C(=O)NC(Cc1c[nH]c2ccccc12)C(=O)NCCCCC(=O)NC(C)C(=O)NC(CCC(N)=O)C(=O)NC(CCCCN)C(=O)NC(C)C(=O)NC(CCCNC(=N)N)C(=O)NC(CCCCN)C(N)=O (stereo not given) ([Mpa]AAWHSW[Ava]AQKARK-NH2; configuration not given here) | > 100 µM (inactive) | > 100 µM (inactive) | > 100 µM (inactive) | 44.2 µM (inactive) | > 100 µM (inactive) | > 100 | 24.7 µM (inactive) | > 100 µM (inactive) | > 100 µM (inactive) | > 100 µM (inactive) | 19 µM (inactive) | > 100 µM (inactive) | > 100 µM (inactive) | > 100 µM (inactive) | > 100 µM (inactive) | 29.2 µM (inactive) | 34.7 µM (inactive) | > 100 µM (inactive) | > 100 µM (inactive) | > 100 µM (inactive) |
